Where two headings read alike, the source gives them in different places. Peptide text beside a SMILES is read from it. * marks the point of attachment. Cbz = O=C(OCc1ccccc1)*
Assays:
C6 cells [1] = experiment: C6 cell spreading on PLYS or CNS myelin with protease inhibitors; type: cell-based, rat; details: for activity at 300 µM: C6, 2.5 h
Method: Rat C6, mouse NIH 3T3 and B16 cells were cultured in Dulbecco's modified Eagle's medium (DMEM) supplemented with 10% fetal calf serum (FCS), usually to maximally 70-80% confluency. Cells were harvested with a short trypsin treatment (0.1% in Ca^2+ /Mg^2+ -free Hank's medium for 90 seconds) stopped by addition of FCS in excess, collected by centrifugation. Cells were resuspended in either DMEM/FCS or defined serum-free medium (MEM) and used for experiments. Dissociated rat CNS glial cells were prepared starting from optic nerves of 6-7 days old Lewis rats as described in Section 6.1.1, supra and plated into poly-D-lysine (PLYS) coated wells (100 mm^2, 100 μl medium) at a density of 20,000 cells per well. The culture medium was an enriched L15 medium with 5% rat serum, penicillin and streptomycin. C6, 3T3 and B16 cells were added to 2 day old cultures at a concentration of 30,000 cells per well, incubated for two hours and fixed with warm 4% formalin in phosphate buffer. Inhibitory oligodendrocytes were identified by double labelling using the specific antibodies O1 and O4 (see Section 6.1.3, supra).
(§1) Myelin from rat spinal cord (CNS) or sciatic nerve (PNS) purified on a discontinuous sucrose gradient as described in Section 6.1.5., was dried overnight onto PLYS coated wells (20 μg protein/well of 100 mm^2 surface). Unbound membranes were removed by three washes with Ca^2+ /Mg^2+ -free Hank's solution. Myelin coated wells were immediately used in substrate testing assays by the addition of 9,000 cells (C6, 3T3, or B16) per cm^2. Alternatively, we used extracted CNS myelin protein, or SDS-PAGE purified 35 and 250 kD inhibitory proteins reconstituted in liposomes (see Section 7.1.5, supra). Experiments were scored at different time points using a phase contrast microscope equipped with a photocamera. Quantifications were done using a surface integration program; three arbitrary fields were photographed for each well at a magnitude of 80×, at least 25 cells per picture were measured. Each point represents the mean of at least 3 wells±SEM. Results are expressed as μ^2 of projected cell surface, or as degree, which was calculated by subtracting from the projected surface value of a spreading cell, the surface value of a completely spheric cell.

3T3 cells = experiment: Treatment of CNS myelin with C6 plasma membranes, then 3T3 spreading and 3H-thymidine incorporation; type: cell-based, mouse
Method: as §1
C6 cells grown to 80% confluency were washed twice with Hank's medium, and harvested in 20 ml 8.5% sucrose, 50 mM NaCl, 10 mM Tris buffer, pH 7.4, using a rubber policeman. After mechanical homogenization through a series of needles of decreasing size, a low purity plasma membrane fraction was obtained by centrifugation (5 minutes at 3000× g, 10 minutes at 8000× g, and then 2 hours at 100,000× g). A higher purity fraction was isolated by loading the material on a discontinuous sucrose gradient, containing 50 mM NaCl, 10 mM Tris, pH 7.4 (Quigley, 1976, J. Cell Biol. 71: 472-486). 20-40% sucrose interphase (C6 plasma membranes fraction) and 40-60% sucrose interphase (C6 mitochondrial fraction) were collected, washed in Hank's medium and resuspended in MEM.
CNS myelin coated PLYS wells were prepared as described in the previous section, but instead of being immediately tested as substrate, they were first incubated with 50 μl of C6 plasma membranes (containing 0.8 mg protein/ml MEM) at 37° for 30 minutes. Dishes were then rinsed twice with Hank's medium and immediately used as substrates for 3T3 cells. In some experiments, protease blockers were added to the membranes using 10 times concentrated solutions.

C6 cells [2] = experiment: C6 cell spreading on CNS myelin protein liposomes, antibody and/or 1,10-phenanthroline; type: cell-based, rat; details: 0.3 mM 1,10-phenanthroline
Method: Substrates were tested as described in Section 7.1.2 supra). Myelin fractions or liposomes in medium A were dried onto the wells of polylysine-coated Greiner dishes (Greiner, Murtingen, FRG). […] When substrates were tested in the presence of antibody, bound substrates were incubated in the presence of undiluted hybridoma supernatants or in the presence of 1:30 dilutions (in Hank's medium) of antisera. After 15 minutes at 37° C., four-fifths of the antibody-containing medium was removed and substituted with cell-containing medium. An analogous preincubation procedure was used in experiments aimed at testing HBO nonpermissiveness. 3T3 experiments were usually scored after a culture period of 1 hour, whereas SCG neurons were allowed to grow processes for 24 hours in culture. When 3T3 cells were preincubated with hybridoma supernatant, incubations were performed in gently agitated suspensions for a period of 15 minutes at room temperature. Cells were then sedimented, resuspended in culture medium, and added to substrate-adsorbed Greiner dish wells. 3T3 cells were added at a density of 30,000 cells per cm^2, and SCG neurons were added at a density of 20,000 cells per cm^2.
as §1, with “Myelin coated wells were immediately used in substrate testing assays by the addition of 9,000 cells (C6, 3T3, or B16) per cm^2. Alternatively, we used extracted CNS myelin protein, or SDS-PAGE purified 35 and 250 kD inhibitory proteins reconstituted in liposomes (see Section 7.1.5, supra).” left out, “Each point represents the mean of at least 3 wells±SEM.” left out

C6 cells [3] = experiment: C6 cell attachment and spreading on rat cerebellar frozen sections; type: cell-based; details: 1,10-phenanthroline 50, 100, 200 and 300 μM; cbz-tyr-tyr 100 μM
Method: Adult rat cerebellum frozen sections were prepared and dried on glass coverslips. 70,000 C6, 3T3, or B16 cells in 100 μl were added to each well containing slices previously rinsed with cold DMEM/FCS. Cultures were incubated for 2 days at 37° C. Cultures were then fixed and stained with cresyl violet. Three to four cerebellum slices were used per point per experiment, with each experiment being repeated at least 2 times.

C6 cells [4] = experiment: C6 cell infiltration into optic nerve explants; type: cell-based, rat; details: nerves injected with 4 μl of 3 mM solution; medium 0.5 mM peptide; 14 days
Method: Optic nerve and sciatic nerve explants were prepared as described (Schwab and Thoenen, 1985, J. Neurosci. 5:2415-2423). Briefly, the nerves were rapidly dissected from about 8 week old male rats, cleaned from the meninges, 3 times frozen and thawed using liquid nitrogen, and placed under a teflon ring (diameter 13 mm, thickness 1 mm) sealed to a culture dish with silicon grease. Two chambers connected only by the explants were in this way obtained. 300,000 C6, 3T3 or B16 cells were plated in the inner chamber in DMEM/FCS and incubated for 5 to 20 days. The medium was changed every other day. Cultures were fixed overnight with 4% formalin. The nerve explants were mounted with Tissue-Tek, 10 to 15 μm sections were cut in a cryostate and collected on gelatine coated cover slips. After drying at room temperature overnight, the sections were stained in 0.75% cresyl violet, and evaluated. The infiltrated cells were counted for each 0.1 mm of the explants, starting from the tip where cells were added. Due to the 15 day incubation, the explants were often different in diameter. Therefore, only the central part of the nerves (0.25 mm) were considered, since only this part of the explants presented a good histological quality. Inhibition experiments were performed with nerve explants previously injected from both sides with 2 μl of 3 mM cbz-tyr-tyr or cbz-ala-phe solutions.

SMILES | inhibition of C6 cell spreading on CNS myelin (C6 cells [1]) | concentrations exerting a general toxic effect on all substrates (C6 cells [1]; C6 cells, 3 hours, FIG. 22) | activity at 300 µM (C6 cells [1]; Rattus norvegicus, inhibitor 0.3 mM, 150 minutes, read-out: Spreading on: PLYS (% of control on PLYS)) | activity at 300 µM (C6 cells [1]; Rattus norvegicus, inhibitor 0.3 mM, CNS myelin, 150 minutes, read-out: Spreading on: CNS (% of control on PLYS)) | inhibition at 300 µM (C6 cells [1]; Rattus norvegicus, C6, inhibitor 0.3 mM, PLYS value minus CNS myelin value) | IC50 (C6 cells [1]; Rattus norvegicus, C6 cells on CNS myelin, 3 hours (FIG. 22), read-out: Half maximal inhibition of C6 spreading on CNS myelin (IC50)) | effect on C6 cell spreading on PLYS, glass and PNS myelin (C6 cells [1]; concentrations up to 0.5 mM) | 3T3 Cell Spreading (%) (3T3 cells; 3T3 on CNS myelin, alone or preincubated with C6 PM without/with the named inhibitor, 150 minutes, PLYS = 100) | 3H-Thymidine Incorporation (%) (3T3 cells; 3T3 on CNS myelin, alone or preincubated with C6 PM without/with the named inhibitor, 20 hours, PLYS = 100) | effect on the C6 plasma membrane effect (neutralization of CNS myelin inhibitory activity) (3T3 cells; blockers added to C6 plasma membranes) | spreading value on: CNS lipos. (C6 cells [2]; substrate preadsorbed with the named antibody or none, 150 minutes) | spreading value on: PLYS (C6 cells [2]; with the named antibody or none, 150 minutes) | % inhibition on CNS lipos. (C6 cells [2]; with the named antibody or none, relates to PLYS) | distribution and behavior of C6 cells on white matter of cerebellar frozen sections (C6 cells [3]) | Spreading on: PLYS (% of control on PLYS) (C6 cells [1]; inhibitor 0.3 mM, 150 minutes) | Spreading on: CNS (% of control on PLYS) (C6 cells [1]; inhibitor 0.3 mM, CNS myelin, 150 minutes) | Inhibition on CNS (%) (C6 cells [1]; inhibitor 0.3 mM, PLYS value minus CNS myelin value) | C6 cell infiltration into optic nerve explants (C6 cells [4])
c1cnc2c(c1)ccc1cccnc12 [1,10-phenanthroline] | up to 67% | above 0.5 mM | 97% | 30% | 67% | 200 µM | did not impair C6 cell spreading | 17% | 50% | completely blocked | 1.35 μm^2 10^3 | 2.49 μm^2 10^3 | 46% | dramatically changed the distribution and behavior of C6 cells on the white matter areas | – | – | – | –
O=C(N[C@@H](Cc1ccc(O)cc1)C(=O)N[C@@H](Cc1ccc(O)cc1)C(=O)O)OCc1ccccc1 [cbz-tyr-tyr, carbobenzoxy-tryosine-tyrosine] (Cbz-Tyr-Tyr-OH) | – | – | – | – | – | – | – | – | – | – | – | – | – | dramatically changed the distribution and behavior of C6 cells on the white matter areas | 101 % of control on PLYS | 56 % of control on PLYS | 45% | inhibited C6 cell infiltration in all the 8 nerves examined
